According to patent publication US7279304B2, “Methods for preparation of macrocyclic molecules and macrocyclic molecules prepared thereby” (President and Fellows of Harvard College, priority 2000, dated 2007):
Read-outs that look alike come from different tables or passages of the source. Where a SMILES comes first, the peptide text is derived from it. [ ]: non-standard residue; d: D form. The star is where a group is joined. ξ: configuration not given here. Butanoyl(3R-OH) = C[C@@H](O)CC(=O)*; dPhLac = O=C(O)[C@H](O)Cc1ccccc1; dOrn = NCCC[C@@H](N)C(=O)O; Hiv = CC(C)[C@H](O)C(=O)O; SCH2CH2NHAc = CC(=O)NCCS*; Orn = NCCC[C@H](N)C(=O)O; ξP = O=C(O)C1CCCN1

Columns and labels:
[1] = target: T1, TycC TE (excised TE domain protein from the tyrocidine NRPS) (Brevibacillus parabrevis, UniProt O30409); type: biochemical; conditions: for kcat / Km: Table 1, macrocyclization of peptide-SNAC substrate, 25 mM MOPS, pH 7.0; for thioester hydrolysis by TycC TE (result in words): kinetic parameters similar to the wild-type substrate (Ex. 3); for cyclization rate compared with the substrate in Example 3: data not shown
T1 construct: excised TE domain protein from the tyrocidine NRPS (TycC TE); made in house
T1 sequence (O30409 6238-6486): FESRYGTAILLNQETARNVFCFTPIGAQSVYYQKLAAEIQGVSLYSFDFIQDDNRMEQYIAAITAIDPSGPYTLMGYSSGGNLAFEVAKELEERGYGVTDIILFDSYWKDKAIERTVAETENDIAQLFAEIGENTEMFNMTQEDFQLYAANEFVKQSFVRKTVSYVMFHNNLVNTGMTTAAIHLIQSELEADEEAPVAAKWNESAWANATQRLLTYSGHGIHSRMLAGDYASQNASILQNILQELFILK
Description: Macrocyclization reactions were carried out in 25 mM MOPS, pH 7.0 in a total volume of 400 μL. Reactions were initiated by addition of TycC TE and quenched at various time points by the addition of 25 μL 1.7% TFA/water, flash frozen in liquid nitrogen and stored at −80° C. (for Ex. 13, reactions were quenched by the addition of sodium phosphate, pH 5.3, to 100 mM). The reactions were then thawed, 85 μL acetonitrile added, and analyzed by analytical HPLC with monitoring at 220 nm (20% to 80% acetonitrile in 0.1% TFA/water, or in 25 mM potassium phosphate, pH 5.3 for Ex. 13, over 35 minutes, Vydac protein and peptide C18 column). Initial rates were calculated using 1 minute time points. Peptide-SNAC and reaction product concentrations were determined for all Tyr-containing peptides based on the estimated extinction coefficient ε (280 nm)=1,280 M^−1 cm^−1, which agrees with the experimentally determined ε (280 nm) of Ex. 1. For peptide-SNACs not containing Tyr, ε (220 nm) was determined experimentally, and concentrations of corresponding cyclic products determined by assuming equal ε (220 nm) values for the peptide-SNAC and cyclic product.

[2] = target: T2, excised TE domain protein from the surfactin synthetase (Bacillus subtilis, UniProt Q08787); experiment: Cyclization of thioester substrate to macrolactone by excised surfactin synthetase TE domain; type: biochemical
T2 construct: the excised TE domain protein from the surfactin synthetase protein system; made in house
From the text: In accord with the present invention, other linear substrate molecules can be cyclized by other excised TE domain proteins besides the TE domain protein excised from the tyrocidine NRPS. […] The excised surfactin TE domain protein selectively cyclizes substrates with the (R)-hydroxybutanamide nucleophile versus substrates with the (S)-hydroxybutamide nucleophile.
The observed specificity of the surfactin TE domain supports that TE domains can cyclize a variety of substrates provided that certain key recognition elements that are generally near the parts of the molecule that are joined in the cyclization reaction are present. For example, substrate 27 contains a change in the sequence of the heptapeptide compared to the wild-type surfactin sequence (D-Leu3 is changed to D-Orn), but this substrate is nevertheless cyclized by the excised TE domain from surfactin synthetase. When the (R)-hydroxybutanamide nucleophile in compound 27 was changed to a (S)-hydroxybutanamide nucleophile (a change near the parts of the molecule joined by the cylization reaction), cyclization activity was abolished.

T2 sequence (Q08787 1059-1271): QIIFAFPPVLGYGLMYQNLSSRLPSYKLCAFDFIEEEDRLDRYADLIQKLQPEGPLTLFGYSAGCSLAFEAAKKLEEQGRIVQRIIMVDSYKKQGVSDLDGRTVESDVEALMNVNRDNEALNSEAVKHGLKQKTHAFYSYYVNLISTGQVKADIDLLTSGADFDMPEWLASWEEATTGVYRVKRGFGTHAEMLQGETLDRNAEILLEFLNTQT

CC(=O)NCCSC(=O)[C@H](CC(C)C)NC(=O)[C@H](CCCN)NC(=O)[C@@H](NC(=O)[C@H](Cc1ccc(O)cc1)NC(=O)[C@H](CCC(N)=O)NC(=O)[C@H](CC(N)=O)NC(=O)[C@@H](Cc1ccccc1)NC(=O)[C@H](Cc1ccccc1)NC(=O)C1CCCN1C(=O)[C@H](O)Cc1ccccc1)C(C)C (stereo partly drawn) [compound 24] (H-[dPhLac][ξP]F[dF]NQYV[Orn]L-SCH2CH2NHAc)
cyclization by TycC TE domain (result in words) [1]: macrocyclized

D-Phe-Pro-Val-Orn-Leu-D-Phe-Pro-Val-Orn-Leu-SNAC [Example 17]
kcat [1]: 12 | Km ([1]; read-out: KM): 5 µM | KM as compared to Ex. 3 ([1]; cyclization): comparable | reduction in kcat relative to wild-type substrate (Ex. 3) ([1]; cyclization): 5 fold

Phe-Pro-Phe-D-Phe-Asn-Gln-Tyr-Val-Orn-Leu-SNAC [Example 4]
cyclization by TycC TE domain (result in words) [1]: arrests cyclization activity | kcat [1]: 0 | thioester hydrolysis by TycC TE (result in words) [1]: observed

CC(=O)NCCSC(=O)[C@H](CC(C)C)NC(=O)[C@H](CCCN)NC(=O)[C@@H](NC(=O)[C@H](Cc1ccc(O)cc1)NC(=O)[C@H](CCC(N)=O)NC(=O)[C@H](CC(N)=O)NC(=O)[C@@H](Cc1ccccc1)OC(=O)[C@H](Cc1ccccc1)NC(=O)C1CCCN1C(=O)[C@H](N)Cc1ccccc1)C(C)C (stereo partly drawn) [compound 22] (H-[dF][ξP]F[dPhLac]NQYV[Orn]L-SCH2CH2NHAc)
cyclization rate compared with the substrate in Example 3 [1]: similar

CC(=O)NCCSC(=O)[C@H](CC(C)C)NC(=O)[C@@H](CC(C)C)NC(=O)[C@H](CC(=O)O)NC(=O)[C@@H](NC(=O)[C@@H](CCCN)NC(=O)[C@H](CC(C)C)NC(=O)[C@H](CCC(=O)O)NC(=O)C[C@@H](C)O)C(C)C [compound 27] ({Butanoyl(3R-OH)}-EL[dOrn]VD[dL]L-SCH2CH2NHAc)
cyclization to macrolactone by excised surfactin TE domain [2]: efficiently cyclized

D-Ala-Pro-Phe-D-Phe-Asn-Gln-Tyr-Val-Orn-Leu-SNAC [Example 5]
cyclization by TycC TE domain (result in words) [1]: arrests cyclization activity | kcat [1]: 0 | thioester hydrolysis by TycC TE (result in words) [1]: observed

D-Phe-Pro-Val-Orn-Leu-SNAC [pentapeptide-SNAC]
chain dimerization and subsequent cyclization to gramicidin S ([1]; incubation of pentapeptide-SNAC with TycC TE): efficient chain dimerization and subsequent cyclization occurred

CC(=O)NCCSC(=O)[C@H](CC(C)C)NC(=O)[C@H](CCCN)NC(=O)[C@@H](OC(=O)[C@H](Cc1ccc(O)cc1)NC(=O)[C@H](CCC(N)=O)NC(=O)[C@H](CC(N)=O)NC(=O)[C@@H](Cc1ccccc1)NC(=O)[C@H](Cc1ccccc1)NC(=O)C1CCCN1C(=O)[C@H](N)Cc1ccccc1)C(C)C (stereo partly drawn) [compound 23] (H-[dF][ξP]F[dF]NQY[Hiv][Orn]L-SCH2CH2NHAc)
cyclization rate compared with the substrate in Example 3 [1]: similar

CC(=O)NCCSC(=O)[C@H](CC(C)C)NC(=O)[C@H](CCCN)NC(=O)[C@@H](NC(=O)[C@H](Cc1ccc(O)cc1)NC(=O)[C@H](CCC(N)=O)NC(=O)[C@H](CC(N)=O)NC(=O)[C@@H](Cc1ccccc1)NC(=O)[C@H](Cc1ccccc1)NC(=O)[C@@H]1CCCN1C(=O)[C@H](N)Cc1ccccc1)C(C)C [Example 3, D-Phe-Pro-Phe-D-Phe-Asn-Gln-Tyr-Val-Orn-Leu-SNAC] (H-[dF]PF[dF]NQYV[Orn]L-SCH2CH2NHAc)
Km [1]: 3 µM
